The assay concerns the target T1, Recombinant Human EphA2 Fc Protein (Homo sapiens, UniProt P29317).
T1 construct: purchased Elabscience
Nature of the assay: SPR interaction analysis (Biacore T200), kinetics of peptides against EphA2. In kind it is binding. Particulars: Recombinant Human EphA2 Fc Protein captured by Human Antibody Capture kit; single-cycle kinetics; 25° C.; HBS-P+ buffer with 1% DMSO. Here is the method: Example 14 Interaction Analysis by SPR was Performed Using Biacore (Cytiva)
SPR assay was performed using Biacore T200 (Cytiva).
The HBS-P+ buffer (10 mM HEPES (pH7.4), 150 mM NaCl, 0.05% (v/V) Surfactant P20) containing 1% DMSO was used as running buffer. Recombinant Human EphA2 Fc Protein (Fc tag, Elabscience) was captured by Human Antibody Capture kit (Cytiva). Peptide samples in DMSO were diluted with running buffer, and prepared five serial dilutions. Using these serial dilutions, kinetics of peptides against EphA2 was measured at a flow rate of 30 mL/min at 25° C. The method adopted for sample measurement was a single-cycle kinetics method. The analysis was conducted using the evaluation software 3.0 provided with Biacore T200. Kinetics fitting was done on the difference data obtained by subtracting the baseline data from sample measurement data. KD values were calculated based on the association rate constant (ka) and dissociation rate constant (kd).

Numbered stars: 1 amine (or outer) side, 2 acyl side, 3 side chain; on linkers, the order of the positions; unused ones are H or OH. Bridge positions count the residues as written; N and C are the ends. Square brackets hold non-standard residues; d marks the D form. Side chains are listed from the residue outwards. Peptide text beside a SMILES is read from it. * marks the point of attachment. X6 = Cn1cc(C[C@H](N[*:1])C(=O)[*:2])c2cccnc21; Piperazinyl(4-CH2COOH) = O=C(O)CN1CCN(*)CC1; Trp(1-Me) = Cn1cc(C[C@H](N)C(=O)O)c2ccccc21; X5 = Cc1cccc(C[C@H](N[*:1])C(=O)[*:2])c1C; NMe3Pal = CN[C@@H](Cc1cccnc1)C(=O)O; NMeF = CN[C@@H](Cc1ccccc1)C(=O)O; Gly(cBu) = N[C@H](C(=O)O)C1CCC1; NMeE = CN[C@@H](CCC(=O)O)C(=O)O; Aad = N[C@@H](CCCC(=O)O)C(=O)O; NMeN = CN[C@@H](CC(N)=O)C(=O)O; Chg = N[C@H](C(=O)O)C1CCCCC1; CO = O=C([*:1])[*:2]

For `C[C@H]1NC(=O)CSC[C@@H](C(N)=O)NC(=O)[C@H](CCCC(N)=O)NC(=O)[C@H]([C@@H](C)O)NC(=O)[C@H](Cc2cn(C)c3ccccc23)NC(=O)[C@H](CCCCNC(=O)N2CCN(CC(=O)O)CC2)NC(=O)[C@H](Cc2cn(C)c3ccccc23)NC(=O)[C@H](Cc2ccccc2)N(C)C(=O)[C@H](CCCC(N)=O)NC(=O)[C@H](C2CCC2)NC(=O)[C@H](CC(N)=O)NC(=O)[C@H](Cc2cccnc2)N(C)C1=O` [PDC_EphA2-00009999, da-Me3Py-N-Cbg-Hgn-MeF-W1Me-KCOpipzaa-W1Me-T-Hgn-C-NH2] ({CH2CO}-[dA][NMe3Pal]N[Gly(cBu)][Aad](NH2)[NMeF][Trp(1-Me)]K([CO-Piperazinyl(4-CH2COOH)])[Trp(1-Me)]T[Aad](NH2)C-NH2; thioether N-12), the Kd was under 1 nM.

Turning to `C[C@H]1NC(=O)CSC[C@@H](C(N)=O)NC(=O)[C@H](CCCC(N)=O)NC(=O)[C@H]([C@@H](C)O)NC(=O)[C@H](Cc2cn(C)c3ccccc23)NC(=O)[C@H](CCCCNC(=O)N2CCN(CC(=O)O)CC2)NC(=O)[C@H](Cc2cn(C)c3ccccc23)NC(=O)[C@H](CC(N)=O)NC(=O)[C@H](CCCC(N)=O)NC(=O)[C@H](C2CCC2)NC(=O)[C@H](CC(N)=O)NC(=O)[C@H](Cc2cccnc2)N(C)C1=O` [PDC_EphA2-00010000, da-Me3Py-N-Cbg-Hgn-N-W1Me-KCOpipzaa-W1Me-T-Hgn-C-NH2] ({CH2CO}-[dA][NMe3Pal]N[Gly(cBu)][Aad](NH2)N[Trp(1-Me)]K([CO-Piperazinyl(4-CH2COOH)])[Trp(1-Me)]T[Aad](NH2)C-NH2; thioether N-12), the Kd is under 1 nM.

Regarding `C[C@H]1NC(=O)CSC[C@@H](C(N)=O)NC(=O)[C@H](CCCC(N)=O)NC(=O)[C@H]([C@@H](C)O)NC(=O)[C@H](Cc2cn(C)c3ccccc23)NC(=O)[C@H](CCCCNC(=O)N2CCN(CC(=O)O)CC2)NC(=O)[C@H](Cc2cn(C)c3ccccc23)NC(=O)[C@H](CC(N)=O)N(C)C(=O)[C@H](CCCC(N)=O)NC(=O)[C@H](C2CCC2)NC(=O)[C@H](CC(N)=O)NC(=O)[C@H](Cc2cccnc2)N(C)C1=O` [PDC_EphA2-00010001, da-Me3Py-N-Cbg-Hgn-MeN-W1Me-KCOpipzaa-W1Me-T-Hgn-C-NH2] ({CH2CO}-[dA][NMe3Pal]N[Gly(cBu)][Aad](NH2)[NMeN][Trp(1-Me)]K([CO-Piperazinyl(4-CH2COOH)])[Trp(1-Me)]T[Aad](NH2)C-NH2; thioether N-12), the dissociation constant Kd was under 1 nM.

Regarding `C[C@H]1NC(=O)CSC[C@@H](C(N)=O)NC(=O)[C@H](CCCC(N)=O)NC(=O)[C@H]([C@@H](C)O)NC(=O)[C@H](Cc2cn(C)c3ccccc23)NC(=O)[C@H](CCCCNC(=O)N2CCN(CC(=O)O)CC2)NC(=O)[C@H](Cc2cn(C)c3ncccc23)NC(=O)[C@H](Cc2ccccc2)N(C)C(=O)[C@H](CCCC(N)=O)NC(=O)[C@H](C2CCC2)NC(=O)[C@H](CC(N)=O)NC(=O)[C@H](Cc2cccnc2)N(C)C1=O` [PDC_EphA2-00010002, da-Me3Py-N-Cbg-Hgn-MeF-W1Me7N-KCOpipzaa-W1Me-T-Hgn-C-NH2] ({CH2CO}-[dA][NMe3Pal]N[Gly(cBu)][Aad](NH2)[NMeF][X6]K([CO-Piperazinyl(4-CH2COOH)])[Trp(1-Me)]T[Aad](NH2)C-NH2; thioether N-12), the Kd is under 1 nM.

For `Cc1cccc(C[C@@H]2NC(=O)[C@H](CCCCNC(=O)N3CCN(CC(=O)O)CC3)NC(=O)[C@H](Cc3cn(C)c4ccccc34)NC(=O)[C@H](Cc3ccccc3)N(C)C(=O)[C@H](CCCC(N)=O)NC(=O)[C@H](C3CCC3)NC(=O)[C@H](CC(N)=O)NC(=O)[C@H](Cc3cccnc3)N(C)C(=O)[C@@H](C)NC(=O)CSC[C@@H](C(N)=O)NC(=O)[C@H](CCCC(N)=O)NC(=O)[C@H]([C@@H](C)O)NC2=O)c1C` [PDC_EphA2-00010003, da-Me3Py-N-Cbg-Hgn-MeF-W1Me-KCOpipzaa-F23dMe-T-Hgn-C-NH2] ({CH2CO}-[dA][NMe3Pal]N[Gly(cBu)][Aad](NH2)[NMeF][Trp(1-Me)]K([CO-Piperazinyl(4-CH2COOH)])[X5]T[Aad](NH2)C-NH2; thioether N-12), the dissociation constant (Kd) was under 1 nM.

Consider `C[C@H]1NC(=O)CSC[C@@H](C(N)=O)NC(=O)[C@H](CC(N)=O)NC(=O)[C@H]([C@@H](C)O)NC(=O)[C@H](Cc2cn(C)c3ccccc23)NC(=O)[C@H](CCCCNC(=O)N2CCN(CC(=O)O)CC2)NC(=O)[C@H](Cc2cn(C)c3ccccc23)NC(=O)[C@H](Cc2ccccc2)N(C)C(=O)[C@H](CCCC(N)=O)NC(=O)[C@H](C2CCC2)NC(=O)[C@H](CC(N)=O)NC(=O)[C@H](Cc2cccnc2)N(C)C1=O` [PDC_EphA2-00010004, da-Me3Py-N-Cbg-Hgn-MeF-W1Me-KCOpipzaa-W1Me-T-N-C-NH2] ({CH2CO}-[dA][NMe3Pal]N[Gly(cBu)][Aad](NH2)[NMeF][Trp(1-Me)]K([CO-Piperazinyl(4-CH2COOH)])[Trp(1-Me)]TNC-NH2; thioether N-12), for which the Kd was under 1 nM.

With `C[C@H]1NC(=O)CSC[C@@H](C(N)=O)NC(=O)[C@H](CCCC(N)=O)NC(=O)[C@H]([C@@H](C)O)NC(=O)[C@H](Cc2cn(C)c3ccccc23)NC(=O)[C@H](CCCCNC(=O)N2CCN(CC(=O)O)CC2)NC(=O)[C@H](Cc2cn(C)c3ccccc23)NC(=O)[C@H](Cc2ccccc2)N(C)C(=O)[C@H](CCCC(N)=O)NC(=O)[C@H](C2CCCCC2)NC(=O)[C@H](CC(N)=O)NC(=O)[C@H](Cc2cccnc2)N(C)C1=O` [PDC_EphA2-00010005, da-Me3Py-N-Chg-Hgn-MeF-W1Me-KCOpipzaa-W1Me-T-Hgn-C-NH2] ({CH2CO}-[dA][NMe3Pal]N[Chg][Aad](NH2)[NMeF][Trp(1-Me)]K([CO-Piperazinyl(4-CH2COOH)])[Trp(1-Me)]T[Aad](NH2)C-NH2; thioether N-12), the equilibrium dissociation constant (Kd) was under 1 nM.

With `CC(C)C[C@@H]1NC(=O)[C@H](CC(N)=O)NC(=O)[C@H](Cc2cccnc2)N(C)C(=O)[C@@H](C)NC(=O)CSC[C@@H](C(N)=O)NC(=O)[C@H](CCCC(N)=O)NC(=O)[C@H]([C@@H](C)O)NC(=O)[C@H](Cc2cn(C)c3ccccc23)NC(=O)[C@H](CCCCNC(=O)N2CCN(CC(=O)O)CC2)NC(=O)[C@H](Cc2cn(C)c3ccccc23)NC(=O)[C@H](CCC(=O)O)N(C)C(=O)[C@H](CCCC(=O)O)NC1=O` [PDC_EphA2-00010006, da-Me3Py-N-L-Hgl-MeE-W1Me-KCOpipzaa-W1Me-T-Hgn-C-NH2] ({CH2CO}-[dA][NMe3Pal]NL[Aad][NMeE][Trp(1-Me)]K([CO-Piperazinyl(4-CH2COOH)])[Trp(1-Me)]T[Aad](NH2)C-NH2; thioether N-12), the equilibrium dissociation constant (Kd) is under 1 nM.

As to `C[C@H]1NC(=O)CSC[C@@H](C(N)=O)NC(=O)[C@H](CCCC(N)=O)NC(=O)[C@H]([C@@H](C)O)NC(=O)[C@H](Cc2cn(C)c3ccccc23)NC(=O)[C@H](CCCCNC(=O)N2CCN(CC(=O)O)CC2)NC(=O)[C@H](Cc2cn(C)c3ccccc23)NC(=O)[C@H](CCC(=O)O)N(C)C(=O)[C@H](CCCC(=O)O)NC(=O)[C@H](C2CCC2)NC(=O)[C@H](CC(N)=O)NC(=O)[C@H](Cc2cccnc2)N(C)C1=O` [PDC_EphA2-00010007, da-Me3Py-N-Cbg-Hgl-MeE-W1Me-KCOpipzaa-W1Me-T-Hgn-C-NH2] ({CH2CO}-[dA][NMe3Pal]N[Gly(cBu)][Aad][NMeE][Trp(1-Me)]K([CO-Piperazinyl(4-CH2COOH)])[Trp(1-Me)]T[Aad](NH2)C-NH2; thioether N-12), the dissociation constant Kd was under 1 nM.
